Reference: ChEMBL document CHEMBL6103591, “Discovery of naphthoquinone-furo-piperidone derivatives as dual targeting agents of STAT3 and NQO1 for the treatment of breast cancer” (Eur J Med Chem, 2025)

Tests used:
[1] = biological target: Signal transducer and activator of transcription 3 (Homo sapiens, UniProt P40763); assay: Inhibition of STAT3 (unknown origin) activation transfected in HEK293 preincubated for 30 mins followed by IL-6 addition and measured after 24 hrs by luciferase reporter gene assay; format: cell-based
MDA-MB-468 [2] = assay: Induction of apoptosis in human MDA-MB-468 cells assessed as late apoptotic cells at 3 uM measured after 24 hrs by Annexin V/propidium iodide (PI) double staining based flow cytometric analysis (reference value: 2.24 %); format: functional
MDA-MB-231 [3] = assay: Induction of apoptosis in human MDA-MB-231 cells assessed as late apoptotic cells at 3 uM measured after 24 hrs by Annexin V/propidium iodide (PI) double staining based flow cytometric analysis (reference value: 1.84 %); format: functional
MDA-MB-468 [4] = assay: Induction of apoptosis in human MDA-MB-468 cells assessed as late apoptotic cells at 3 uM measured after 24 hrs in presence of Z-VAD-FMK by Annexin V/propidium iodide (PI) double staining based flow cytometric analysis (reference value: 2.12 %); format: functional
MDA-MB-468 [5] = assay: Induction of apoptosis in human MDA-MB-468 cells assessed as early apoptotic cells at 3 uM measured after 24 hrs in presence of Z-VAD-FMK by Annexin V/propidium iodide (PI) double staining based flow cytometric analysis (reference value: 4.97 %); format: functional
MDA-MB-231 [6] = assay: Induction of apoptosis in human MDA-MB-231 cells assessed as late apoptotic cells at 1.5 uM measured after 24 hrs by Annexin V/propidium iodide (PI) double staining based flow cytometric analysis (reference value: 2.22 %); format: functional
MDA-MB-468 [7] = assay: Induction of apoptosis in human MDA-MB-468 cells assessed as late apoptotic cells at 1.5 uM measured after 24 hrs by Annexin V/propidium iodide (PI) double staining based flow cytometric analysis (reference value: 2.24 %); format: functional
MDA-MB-231 [8] = assay: Induction of apoptosis in human MDA-MB-231 cells assessed as early apoptotic cells at 3 uM measured after 24 hrs by Annexin V/propidium iodide (PI) double staining based flow cytometric analysis (reference value: 1.98 %); format: functional
MDA-MB-468 [9] = assay: Induction of apoptosis in human MDA-MB-468 cells assessed as early apoptotic cells at 1.5 uM measured after 24 hrs by Annexin V/propidium iodide (PI) double staining based flow cytometric analysis (reference value: 2.94 %); format: functional
MDA-MB-468 [10] = assay: Induction of apoptosis in human MDA-MB-468 cells assessed as early apoptotic cells at 3 uM measured after 24 hrs by Annexin V/propidium iodide (PI) double staining based flow cytometric analysis (reference value: 4.97 %); format: functional
MDA-MB-231 [11] = assay: Antiproliferative activity against human MDA-MB-231 cells assessed as reduction in cell viability incubated for 48 hrs by MTT assay; format: functional, cell-based; conditions: MDA-MB-231, 48 h
MDA-MB-468 [12] = assay: Induction of apoptosis in human MDA-MB-468 cells assessed as early apoptotic cells at 3 uM measured after 24 hrs by Annexin V/propidium iodide (PI) double staining based flow cytometric analysis (reference value: 2.94 %); format: functional
MDA-MB-468 [13] = assay: Antiproliferative activity against human MDA-MB-468 cells assessed as reduction in cell viability incubated for 48 hrs by MTT assay; format: functional, cell-based; conditions: MDA-MB-468, 48 h
[14] = Selectivity ratio of IC50 for cytotoxicity against human MCF-10A cells to IC50 for antiproliferative activity against human MDA-MB-231 cells; format: toxicity, cell-based; conditions: MCF-10A cells versus MDA-MB-231 cells, read-out: Ratio IC50
MCF7 = assay: Antiproliferative activity against human MCF7 cells incubated for 48 hrs by MTT assay; format: functional, cell-based; conditions: MCF7, 48 h
MDA-MB-231 [15] = assay: Induction of apoptosis in human MDA-MB-231 cells assessed as late apoptotic cells at 3 uM measured after 24 hrs by Annexin V/propidium iodide (PI) double staining based flow cytometric analysis (reference value: 2.22 %); format: functional
MDA-MB-231 [16] = assay: Induction of apoptosis in human MDA-MB-231 cells assessed as early apoptotic cells at 3 uM measured after 24 hrs in presence of Z-VAD-FMK by Annexin V/propidium iodide (PI) double staining based flow cytometric analysis (reference value: 1.99 %); format: functional
[17] = Cytotoxicity against human MCF-10A cells; format: toxicity, cell-based
MDA-MB-468 [18] = assay: Induction of apoptosis in human MDA-MB-468 cells assessed as late apoptotic cells at 3 uM measured after 24 hrs by Annexin V/propidium iodide (PI) double staining based flow cytometric analysis (reference value: 2.12 %); format: functional
MDA-MB-231 [19] = assay: Induction of apoptosis in human MDA-MB-231 cells assessed as early apoptotic cells at 1.5 uM measured after 24 hrs by Annexin V/propidium iodide (PI) double staining based flow cytometric analysis (reference value: 1.98 %); format: functional
MDA-MB-231 [20] = assay: Induction of apoptosis in human MDA-MB-231 cells assessed as early apoptotic cells at 3 uM measured after 24 hrs by Annexin V/propidium iodide (PI) double staining based flow cytometric analysis (reference value: 1.99 %); format: functional
MDA-MB-231 [21] = assay: Induction of apoptosis in human MDA-MB-231 cells assessed as late apoptotic cells at 3 uM measured after 24 hrs in presence of Z-VAD-FMK by Annexin V/propidium iodide (PI) double staining based flow cytometric analysis (reference value: 1.84 %); format: functional

Chain of Signal transducer and activator of transcription 3 (P40763 whole entry): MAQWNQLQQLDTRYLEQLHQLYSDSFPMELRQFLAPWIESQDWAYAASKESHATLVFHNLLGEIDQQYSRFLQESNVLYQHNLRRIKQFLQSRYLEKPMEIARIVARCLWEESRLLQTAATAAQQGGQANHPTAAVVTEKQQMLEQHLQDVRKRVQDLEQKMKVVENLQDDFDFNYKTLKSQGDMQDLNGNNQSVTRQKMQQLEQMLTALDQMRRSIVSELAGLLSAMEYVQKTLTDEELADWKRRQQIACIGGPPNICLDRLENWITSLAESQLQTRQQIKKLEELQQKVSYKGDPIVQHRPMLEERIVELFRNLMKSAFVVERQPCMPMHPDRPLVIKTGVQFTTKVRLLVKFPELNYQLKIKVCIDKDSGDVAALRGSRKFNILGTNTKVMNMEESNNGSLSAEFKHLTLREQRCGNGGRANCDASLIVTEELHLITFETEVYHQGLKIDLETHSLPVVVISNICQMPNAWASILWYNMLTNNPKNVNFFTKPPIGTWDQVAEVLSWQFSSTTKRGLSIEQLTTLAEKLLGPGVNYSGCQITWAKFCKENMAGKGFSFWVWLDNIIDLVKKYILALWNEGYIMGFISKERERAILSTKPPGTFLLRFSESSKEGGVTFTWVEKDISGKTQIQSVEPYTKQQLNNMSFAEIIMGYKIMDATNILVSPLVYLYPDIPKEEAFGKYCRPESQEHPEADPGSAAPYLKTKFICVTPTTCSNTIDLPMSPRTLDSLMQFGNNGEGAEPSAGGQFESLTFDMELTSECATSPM

IC50 [1]: 400 nM
IC50 (MDA-MB-231 [11]): 520 nM
IC50 (MDA-MB-468 [13]): 1480 nM
IC50 (MCF7): 1050 nM
SMILES: O=C1C(=O)c2c(oc3c2CCN(CCN2CCCCC2)C3=O)-c2ccccc21
Activity (MDA-MB-468 [2]): 37.57%
Activity (MDA-MB-231 [3]): 27.43%
Activity (MDA-MB-468 [4]): 8.47%
Activity (MDA-MB-468 [5]): 9.18%
Activity (MDA-MB-231 [6]): 5.26%
Activity (MDA-MB-468 [7]): 4.07%
Activity (MDA-MB-231 [8]): 2.94%
Activity (MDA-MB-468 [9]): 7.36%
Activity (MDA-MB-468 [10]): 17.75%
Activity (MDA-MB-468 [12]): 14.73%
selectivity ratio [14]: ~6
Activity (MDA-MB-231 [15]): 25.08%
Activity (MDA-MB-231 [16]): 4.67%
IC50 [17]: 3330 nM
Activity (MDA-MB-468 [18]): 52.62%
Activity (MDA-MB-231 [19]): 2.31%
Activity (MDA-MB-231 [20]): 8.01%
Activity (MDA-MB-231 [21]): 13.99%
